From patent US20100093702A1, “METHYLENE AMINES OF THIENO[2,3-d]PYRIMIDINE AND THEIR USE AS ADENOSINE A2a RECEPTOR ANTAGONISTS” (priority 2008, published 2010)
Structures can show the parent of a compound that is named as a salt.

Columns and labels:
[1] = biological target: T1, human adenosine A2a receptor (Homo sapiens, UniProt P29274); test: Adenosine A2a Receptor Functional Assay (A2AGAL2); assay type: cell-based; conditions: CHO-K1 cells, cAMP inducible beta-galactosidase reporter, 15 nM NECA agonist challenge
T1 construct: expressed in transfected cells; host or cells: CHO-K1
In short: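 Antagonist mode in CHO-K1 cells expressing human A2a with a cAMP-inducible β-galactosidase reporter (10K cells/well, cultured 2 days). 11-point compound curves preincubated ~15 min at room temperature in Ham's F-12/0.1% BSA, then 15 nM NECA challenge, 5.5–6 h at 37 °C. Colorimetric β-gal read at 405 nm; IC/EC50 fitted.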

[2] = biological target: T2, human adenosine A1 receptor (Homo sapiens, UniProt P30542); test: Adenosine A1 Receptor Functional Assay (A1GAL2); assay type: cell-based; conditions: CHO-K1 cells, cAMP inducible beta-galactosidase reporter, 4 nM r-PIA/1 uM Forskolin challenge
T2 construct: expressed in transfected cells; host or cells: CHO-K1
T2 sequence (P30542 1-326): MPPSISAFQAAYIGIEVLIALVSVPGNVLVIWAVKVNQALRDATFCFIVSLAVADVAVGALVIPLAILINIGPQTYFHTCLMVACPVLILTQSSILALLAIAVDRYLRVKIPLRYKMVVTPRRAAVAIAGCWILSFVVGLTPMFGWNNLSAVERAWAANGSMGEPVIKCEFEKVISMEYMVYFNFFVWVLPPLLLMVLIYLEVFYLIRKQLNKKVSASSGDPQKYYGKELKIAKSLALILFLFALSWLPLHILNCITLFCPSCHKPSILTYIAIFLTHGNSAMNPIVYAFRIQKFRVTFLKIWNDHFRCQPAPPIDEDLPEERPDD
In short: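 CHO-K1 cells expressing the receptor with a cAMP-inducible β-galactosidase reporter were preincubated with compound (11-point curves) about 15 min at room temperature, then challenged with r-PIA (4 nM)/forskolin (1 µM) for 5.5–6 h at 37 °C. Lysates were read colorimetrically at 405 nm, and IC/EC50 was obtained by curve fitting.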

[3] = biological target: T3, human A2a adenosine receptor (Homo sapiens, UniProt P29274); test: Ligand Binding Assay for Adenosine A2a Receptor (A2A-B); conditions: HEK293 plasma membrane, radioligand [3H]CGS21680
T3 construct: purchased PerkinElmer RB-HA2a; host or cells: HEK293
Procedure: Ligand Binding Assay for Adenosine A2a Receptor
Ligand binding assay of adenosine A2a receptor was performed using plasma membrane of HEK293 cells containing human A2a adenosine receptor (PerkinElmer, RB-HA2a) and radioligand [^3H]CGS21680 (PerkinElmer, NET 1021). Assay was set up in 96-well polypropylene plate in total volume of 200 μL by sequentially adding 20 μL 1:20 diluted membrane, 130 μL assay buffer (50 mM Tris.HCl, pH7.4 10 mM MgCl2, 1 mM EDTA) containing [^3H] CGS21680, 50 μL diluted compound (4×) or vehicle control in assay buffer. Nonspecific binding was determined by […] NECA. Reaction was carried out at room temperature for 2 hours before filtering through 96-well GF/C filter plate pre-soaked in 50 mM Tris.HCl, pH7.4 containing 0.3% polyethylenimine. Plates were then washed 5 times with cold 50 mM Tris.HCl, pH7.4, dried and sealed at the bottom. Microscintillation fluid 30 μL was added to each well and the top sealed. Plates were counted on Packard Topcount for [^3H]. Data was analyzed in Microsoft Excel and GraphPad Prism programs. (Varani, K.; Gessi, S.; Dalpiaz, A.; Borea, P. A. British Journal of Pharmacology, 1996, 117, 1693)

T1 sequence (P29274 whole entry): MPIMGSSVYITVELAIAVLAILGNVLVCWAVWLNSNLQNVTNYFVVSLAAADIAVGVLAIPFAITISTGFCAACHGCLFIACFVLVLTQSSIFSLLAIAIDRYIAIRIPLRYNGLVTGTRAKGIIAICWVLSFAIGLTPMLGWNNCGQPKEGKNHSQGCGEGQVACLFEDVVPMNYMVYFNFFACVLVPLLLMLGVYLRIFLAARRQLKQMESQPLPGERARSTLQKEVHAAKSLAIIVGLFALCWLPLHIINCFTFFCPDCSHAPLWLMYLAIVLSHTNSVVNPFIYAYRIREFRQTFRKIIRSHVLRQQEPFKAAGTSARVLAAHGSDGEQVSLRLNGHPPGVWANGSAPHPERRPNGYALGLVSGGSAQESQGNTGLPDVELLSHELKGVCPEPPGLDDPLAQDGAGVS
T3 sequence (P29274 whole entry): as above

Structure (SMILES) | Ki [1] | Ki [2] | Ki [3]
CCN(CC)Cc1cc2c(N)nc(-c3ccco3)nc2s1 [Example 31, 6-Diethylaminomethyl-2-furan-2-yl-thieno[2,3-d]pyrimidin-4-ylamine] | 55.2 nM | 2130 nM | 137 nM
Nc1nc(-c2ccco2)nc2sc(CN3CC[C@H](F)C3)cc12 [Example 53, 6-(3-Fluoro-pyrrolidin-1-ylmethyl)-2-furan-2-yl-thieno[2,3-d]pyrimidin-4-ylamine] | 12.3 nM | 656 nM | 14 nM
Cc1ccc(-c2nc(N)c3cc(CN4CCc5ccccc5C4)sc3n2)o1 [Example 41, 6-(3,4-Dihydro-1H-isoquinolin-2-ylmethyl)-2-(5-methyl-furan-2-yl)-thieno[2,3-d]pyrimidin-4-ylamine] | 202 nM | 3320 nM | 187 nM
C[C@@H]1CCC[C@H](C)N1Cc1cc2c(N)nc(-c3ccco3)nc2s1 [Example 44, 6-(2,6-Dimethyl-piperidin-1-ylmethyl)-2-furan-2-yl-thieno[2,3-d]pyrimidin-4-ylamine] | 5.65 nM | 99.8 nM | 1.4 nM
Nc1nc(-c2ccco2)nc2sc(CN3CCC(F)C3)cc12 (stereo not drawn) [Example 51, 6-(3-Fluoro-pyrrolidin-1-ylmethyl)-2-furan-2-yl-thieno[2,3-d]pyrimidin-4-ylamine] | 9.8 nM | 1340 nM | 5.9 nM
N#Cc1cccc(-c2nc(N)c3cc(CN4C5CCC4CC5)sc3n2)c1 [Example 77, 3-[4-Amino-6-(7-aza-bicyclo[2.2.1]hept-7-ylmethyl)-thieno[2,3-d]pyrimidin-2-yl]-benzonitrile] | 95 nM | 2170 nM | 74.9 nM
Nc1nc(-c2ccco2)nc2sc(CN3CCCC(F)(F)C3)cc12 [Example 57, 6-(3,3-Difluoro-piperidin-1-ylmethyl)-2-furan-2-yl-thieno[2,3-d]pyrimidin-4-ylamine] | 6.62 nM | 294 nM | 8.4 nM
Nc1nc(-c2ccco2)nc2sc(CN3CCCC3)cc12 [Example 28, 2-Furan-2-yl-6-pyrrolidin-1-ylmethyl-thieno[2,3-d]pyrimidin-4-ylamine] | 28.1 nM | 6430 nM | 14.4 nM
Nc1nc(-c2ccco2)nc2sc(CN3CC[C@@H](F)C3)cc12 [Example 54, 6-(3-Fluoro-pyrrolidin-1-ylmethyl)-2-furan-2-yl-thieno[2,3-d]pyrimidin-4-ylamine] | 11.5 nM | 878 nM | 8.2 nM
CN(C)Cc1cc2c(N)nc(-c3ccco3)nc2s1 [Example 46, 6-Dimethylaminomethyl-2-furan-2-yl-thieno[2,3-d]pyrimidin-4-ylamine] | 143 nM | 3550 nM | 89 nM
Cc1ccc(-c2nc(N)c3cc(CN4CCCC4)sc3n2)o1 [Example 39, 2-(5-Methyl-furan-2-yl)-6-pyrrolidin-1-ylmethyl-thieno[2,3-d]pyrimidin-4-ylamine] | 25.9 nM | 620 nM | 10.9 nM
Nc1nc(-c2ccco2)nc2sc(CNC3CCCCC3)cc12 [Example 32, 6-Cyclohexylaminomethyl-2-furan-2-yl-thieno[2,3-d]pyrimidin-4-ylamine] | 168 nM | 2480 nM | 142 nM
Cc1ccc(-c2nc(N)c3cc(CN4CCCCC4)sc3n2)o1 [Example 34, 2-(5-Methyl-furan-2-yl)-6-piperidin-1-ylmethyl-thieno[2,3-d]pyrimidin-4-ylamine] | 28.4 nM | 606 nM | 18.7 nM
N#Cc1ccc(-c2nc(N)c3cc(CN4CC=CCC4)sc3n2)cc1 [Example 63, 4-[4-Amino-6-(3,6-dihydro-2H-pyridin-1-ylmethyl)-thieno[2,3-d]pyrimidin-2-yl]-benzonitrile] | 178 nM | 1630 nM | 150 nM
Nc1nc(-c2ccco2)nc2sc(CNC3CC3)cc12 [Example 29, 6-Cyclopropylaminomethyl-2-furan-2-yl-thieno[2,3-d]pyrimidin-4-ylamine] | 36.2 nM | 1890 nM | 93.3 nM
Nc1nc(-c2ccc(Br)o2)nc2sc(CN3CCOCC3)cc12 [Example 7, 2-(5-Bromo-furan-2-yl)-6-morpholin-4-ylmethyl-thieno[2,3-d]pyrimidin-4-ylamine] | 18.3 nM | 698 nM | 202 nM

Results, then the molecule that gave them:

Ki [1] | Ki [2] | Ki [3] | Structure (SMILES)
22.3 nM | 712 nM | 3.7 nM | Nc1nc(-c2ccc(Cl)o2)nc2sc(CN3CCCC3)cc12 [Example 90, 2-(5-Chloro-furan-2-yl)-6-pyrrolidin-1-ylmethyl-thieno[2,3-d]pyrimidin-4-ylamine hydrochloride]
240 nM | 2960 nM | 393 nM | Nc1nc(-c2cocn2)nc2sc(CN3CC=CCC3)cc12 [Example 70, 6-(3,6-Dihydro-2H-pyridin-1-ylmethyl)-2-oxazol-4-yl-thieno[2,3-d]pyrimidin-4-ylamine]
238 nM | 3890 nM | 1020 nM | Nc1nc(-c2cocn2)nc2sc(CN3CC=CC3)cc12 [Example 69, 6-(2,5-Dihydro-pyrrol-1-ylmethyl)-2-oxazol-4-yl-thieno[2,3-d]pyrimidin-4-ylamine]
10.7 nM | 188 nM | 3.4 nM | Nc1nc(-c2ccc(Cl)o2)nc2sc(CN3CC=CCC3)cc12 [Example 95, 2-(5-Chloro-furan-2-yl)-6-(3,6-dihydro-2H-pyridin-1-ylmethyl)-thieno[2,3-d]pyrimidin-4-ylamine]
83.5 nM | 2070 nM | 77 nM | N#Cc1cccc(-c2nc(N)c3cc(CN4CC=CC4)sc3n2)c1 [Example 64, 3-[4-Amino-6-(2,5-dihydro-pyrrol-1-ylmethyl)-thieno[2,3-d]pyrimidin-2-yl]-benzonitrile]
8.85 nM | 158 nM | 20.3 nM | Nc1nc(-c2ccco2)nc2sc(CN3CC=CCC3)cc12 [Example 98, 6-(3,6-Dihydro-2H-pyridin-1-ylmethyl)-2-furan-2-yl-thieno[2,3-d]pyrimidin-4-ylamine]
1040 nM | 4470 nM | 7410 nM | CC(C)c1ccccc1-c1nc(N)c2cc(CN3CCC(F)CC3)sc2n1 [Example 79, 6-(4-Fluoro-piperidin-1-ylmethyl)-2-(2-isopropyl-phenyl)-thieno[2,3-d]pyrimidin-4-ylamine]
35.9 nM | 1010 nM | 93.2 nM | N#Cc1cccc(-c2nc(N)c3cc(CN4CCOCC4)sc3n2)c1 [Example 74, 3-(4-Amino-6-morpholin-4-ylmethyl-thieno[2,3-d]pyrimidin-2-yl)-benzonitrile]
97.5 nM | 1810 nM | 242 nM | COc1cccc(-c2nc(N)c3cc(CN4CCCC(F)(F)C4)sc3n2)c1 [Example 86, 6-(3,3-Difluoro-piperidin-1-ylmethyl)-2-(3-methoxy-phenyl)-thieno[2,3-d]pyrimidin-4-ylamine]
1030 nM | 5050 nM | 2020 nM | N#Cc1ccccc1-c1nc(N)c2cc(CN3CCC(F)CC3)sc2n1 [Example 73, 2-[4-Amino-6-(4-fluoro-piperidin-1-ylmethyl)-thieno[2,3-d]pyrimidin-2-yl]-benzonitrile]
13.3 nM | 212 nM | 378 nM | N#Cc1cccc(-c2nc(N)c3cc(CN4CC=CCC4)sc3n2)c1 [Example 68, 3-[4-Amino-6-(3,6-dihydro-2H-pyridin-1-ylmethyl)-thieno[2,3-d]pyrimidin-2-yl]-benzonitrile]
30.5 nM | 2700 nM | 66.1 nM | Nc1nc(-c2ccc(C(F)F)o2)nc2sc(CN3CCOCC3)cc12 [Example 107, 2-(5-Difluoromethyl-furan-2-yl)-6-morpholin-4-ylmethyl-thieno[2,3-d]pyrimidin-4-ylamine]
